Assay [1] is described as follows: Anti-inflammatory activity against HBE cells assessed as inhibition of LPS-induced IL-8 level at 5 uM pretreated for 30 mins followed by LPS treatment for 24 hrs by ELISA relative to control. Format: functional. The settings on record: Homo sapiens, time 24.5 hrs. Background: An ELISA detects its analyte on a solid surface through an enzyme-linked reagent.
Assay [2] is described as follows: Anti-inflammatory activity against HBE cells assessed as inhibition of LPS-induced IL-6 level at 5 uM pretreated for 30 mins followed by LPS treatment for 24 hrs by ELISA relative to control. Format: functional. The settings on record: Homo sapiens, time 24.5 hrs.

A word on the inhibition: it is the drop in the measured response relative to a control, in per cent. With `COc1ccccc1Oc1ccnc(Nc2cccc(N)c2)n1`, the inhibition at 5 µM in assay [1] worked out at 56%; in assay [2], 54%.

As to `Nc1cccc(Nc2nccc(Nc3ccc4[nH]ccc4c3)n2)c1`, the inhibition at 5 µM in assay [1] and in assay [2] was > 65% throughout.

In the case of `COc1c(Br)cccc1Nc1ccnc(Nc2cccc(N)c2)n1`, the inhibition at 5 µM in assay [1] amounted to 56%; in assay [2] it was 54%.

Turning to `Cn1cc(-c2ccnc(Nc3cccc(Cl)c3)n2)c2ccccc21`, the figures for the inhibition at 5 µM in assay [1] and in assay [2] were 56% and 54%, respectively.

As for `Cn1cc(-c2ccnc(Nc3cccc(F)c3)n2)c2ccccc21`, the inhibition at 5 µM is 56% in assay [1] and 54% in assay [2].

For `COc1ccc(Oc2ccnc(Nc3cccc(N)c3)n2)cc1OC`, the inhibition at 5 µM is 56% in assay [1] and 54% in assay [2].

In the case of `COc1ccc(C)cc1Nc1ccnc(Nc2cccc(N)c2)n1`, the inhibition at 5 µM in assay [1] is 56%; in assay [2], 54%.

For the molecule `Cn1cc(-c2ccnc(Nc3cccc(C(F)(F)F)c3)n2)c2ccccc21`, the results for the inhibition at 5 µM in assay [1] and in assay [2] were 56% and 54%, respectively.

For `Nc1cccc(Nc2nccc(Oc3ccc4[nH]ccc4c3)n2)c1`, the inhibition at 5 µM in assay [1] and in assay [2] was > 65% each time.

For `Nc1cccc(Nc2nccc(Oc3ccc(OC(F)(F)F)cc3)n2)c1`, the inhibition at 5 µM amounted to 56% in assay [1] and 54% in assay [2].

On to `Cn1cc(-c2ccnc(Nc3cc(N)ccc3F)n2)c2ccccc21`, for which the inhibition at 5 µM was found to be 83% in assay [1] and 69% in assay [2].

As to `COc1ccccc1Nc1ccnc(Nc2cccc(N)c2)n1`, the inhibition at 5 µM in assay [1] is 56%; in assay [2], 54%.

Take `CCOc1ccc(Nc2ccnc(Nc3cccc(N)c3)n2)cc1`: the inhibition at 5 µM in assay [1] was 56%; in assay [2] it was 54%.

As to `Cn1cc(-c2ccnc(Nc3ccc(F)c(N)c3)n2)c2ccccc21`, the inhibition at 5 µM came out at 56% in assay [1] and 54% in assay [2].

Consider `Cc1ccccc1Nc1ccnc(Nc2cccc(N)c2)n1`, for which the inhibition at 5 µM in assay [1] turned out to be 56%; in assay [2] it was 54%.

`Nc1cccc(Nc2nccc(Oc3ccccc3)n2)c1`: the figures for the inhibition at 5 µM in assay [1] and in assay [2] were 56% and 54%, respectively.

Consider `COc1ccc(Nc2ccnc(Nc3cccc(N)c3)n2)c(OC)c1`, for which the inhibition at 5 µM in assay [1] came to 56%; in assay [2] it was 54%.

For the molecule `COc1ccc(Sc2ccnc(Nc3cccc(N)c3)n2)cc1`, the inhibition at 5 µM in assay [1] is 56%; in assay [2], 54%.

On to `COc1cccc(Oc2ccnc(Nc3cccc(N)c3)n2)c1`, for which the inhibition at 5 µM in assay [1] was found to be 56%; in assay [2] it was 54%.

Take `Cn1cc(-c2ccnc(Nc3cccc(C(=O)O)c3)n2)c2ccccc21`: the inhibition at 5 µM in assay [1] came out at 56%; in assay [2] it was 54%.

As to `Nc1cccc(Nc2nccc(Oc3cccc(N)c3)n2)c1`, the inhibition at 5 µM in assay [1] stood at 56%; in assay [2] it was 54%.

`Nc1cccc(Nc2nccc(Nc3cccc(C(F)(F)F)c3)n2)c1`: the values for the inhibition at 5 µM in assay [1] and in assay [2] were 56% and 54%, respectively.

As for `Nc1ccc(Oc2ccnc(Nc3cccc(N)c3)n2)cc1`, the values for the inhibition at 5 µM in assay [1] and in assay [2] were 56% and 54%, respectively.

Consider `Cn1cc(-c2ccnc(Nc3ccccc3N)n2)c2ccccc21`, for which the inhibition at 5 µM came out at 69% in assay [1] and 61% in assay [2].

Take `COc1cccc(Nc2nccc(-c3cn(C)c4ccccc34)n2)c1`: the inhibition at 5 µM is 56% in assay [1] and 54% in assay [2].

Take `COc1ccc(Nc2ccnc(Nc3cccc(N)c3)n2)cc1`: the inhibition at 5 µM in assay [1] worked out at 56%; in assay [2], 54%.

Turning to `Nc1cccc(Nc2nccc(Nc3ccccc3)n2)c1`, the inhibition at 5 µM came to 56% in assay [1] and 54% in assay [2].

Consider `Cn1ccc(Nc2nccc(-c3cn(C)c4ccccc34)n2)n1`, for which the inhibition at 5 µM in assay [1] stood at 56%; in assay [2] it was 54%.

These data come from ChEMBL document CHEMBL6087451, “Design, Synthesis, and Biological Evaluation of 2-Arylaminopyrimidine Derivatives as Dual Cathepsin L and JAK Inhibitors for the Treatment of Acute Lung Injury” (J Med Chem, 2025).
